Results: patent US11541028B2, “Peptide pharmaceuticals for treatment of NASH and other disorders” (Mederis Diabetes LLC, priority 2018, dated 2023)

Legend:
DIO-NASH mice = experiment: Biopsy-proven DIO-NASH mouse model; type: in vivo; details: for hepatocyte ballooning score (0-2), pre-study to post-study biopsy: animals that initially exhibited ballooning
Procedure: All mice entering the study were stratified based on liver pre-biopsy at week −3. Only mice with a fibrosis score ≥1 and a steatosis score ≥2 were included in the study. The stratified mice were randomized into treatment groups based on liver collagen type 1 alpha 1 (collal) quantification at week −3.
Body weight was measured daily for the entire study period. Food intake was measured daily for the first 14 days, and then weekly until study end. EchoMRI whole-body scanning was performed in week 11. At study end were measured plasma levels of alanine transaminase (ALT), aspartate transaminase (AST), γ-glutamyltransferase (GGT), triglycerides (TG) and total cholesterol (TC), liver levels of TG, TC, col1α1 and galectin-3, the expression levels of a wide variety of mRNAs in the liver, and the liver weight, and were performed liver biopsy/necropsy to assess steatosis, inflammation, ballooning and fibrosis of the liver.
For blood and plasma assays, blood samples were collected in heparinized tubes and plasma was separated and stored at −80° C. until analysis. ALT, AST, GGT, TG and TC levels were measured using commercial kits (Roche Diagnostics, Germany) and the Cobas™ C-501 autoanalyzer according to the manufacturer's instructions.
For liver tissue assays, the triglycerides and cholesterol content in the liver was measured using the Triglyceride and Cholesterol reagents (Cat. No. 22-045-795 and Cat. No. 22-045-780, respectively, Roche Diagnostics, Germany) and the Cobas™ C-501 autoanalyzer. Homogenized liver tissue was heated to 80-100° C. twice and centrifuged in a microcentrifuge, and the triglycerides and cholesterol content in the resulting supernatant was measured.
The body composition of the mice was assessed by an EchoMRI 3-1 body composition analyzer (EchoMRI, U.S.). Unanesthetised mice were placed in a plastic tube inside the MRI scanner for about 80 seconds. The body composition was expressed as fat tissue mass, fat-free tissue mass (lean tissue mass) and water.
For liver biopsy, mice were anesthetized by inhalation of isoflurane (2-3%). A small abdominal incision was made in the midline, and the left lateral lobe of the liver was exposed. A cone-shaped wedge of liver tissue (about 50 mg) was excised from the distal portion of the lobe and fixated in 10% neutral-buffered formalin (4% formaldehyde) for histology. The cut surface of the liver was instantly electro-coagulated using bipolar coagulation (ERBE VIO 100 electrosurgical unit). After pre-biopsy, the liver was returned to the abdominal cavity, the abdominal wall was sutured, and the skin was closed with staples. For post-operative recovery, the mice were administered carprofen (5 mg/kg) subcutaneously on the day of operation and on days 1 and 2 post-operation.
For histological staining, in brief, slides with paraffin-embedded sections were de-paraffinated in xylene and then rehydrated in a series of graded ethanol. For hematoxylin and eosin (H&E) staining, the slides were incubated in Mayer's Hematoxylin (Dako), washed in tap water, stained in Eosin Y solution (Sigma-Aldrich), hydrated, mounted with Pertex and then allowed to dry before scanning. For picrosirius red (PSR) staining, the slides were incubated in Weigert's iron hematoxylin (Sigma-Aldrich), washed in tap water, stained in picrosirius red (Sigma-Aldrich) and then washed twice in acidified water. Excess water was removed by shaking the slides, and the slides were dehydrated in three changes of 99% ethanol, cleared in xylene, mounted with Pertex and then allowed to dry before scanning.
For collagen type 1 alpha 1 (collal) and galectin-3 (GAL3) immunohistochemical (IHC) staining, after antigen retrieval and blocking of endogenous peroxidase activity, slides were incubated with the primary antibody (Cat. No. 1310-01 from Southern Biotech for col1α1, or Cat. No. 125402 from Biolegend for galectin-3). […]

GLP-1 R = target: T1, GLP-1 R (Mus musculus, UniProt O35659); experiment: Cerep cellular assay, stimulation of cAMP levels, GLP-1 (murine cell line); type: cell-based; set-up: key: §means superagonist; n.c. means EC50 not calculable; details: for EC50 GLP-1 R (nM): n.c. = EC50 not calculable
T1 construct: GLP-1 (murine cell line) cellular assays
T1 sequence (O35659 22-463): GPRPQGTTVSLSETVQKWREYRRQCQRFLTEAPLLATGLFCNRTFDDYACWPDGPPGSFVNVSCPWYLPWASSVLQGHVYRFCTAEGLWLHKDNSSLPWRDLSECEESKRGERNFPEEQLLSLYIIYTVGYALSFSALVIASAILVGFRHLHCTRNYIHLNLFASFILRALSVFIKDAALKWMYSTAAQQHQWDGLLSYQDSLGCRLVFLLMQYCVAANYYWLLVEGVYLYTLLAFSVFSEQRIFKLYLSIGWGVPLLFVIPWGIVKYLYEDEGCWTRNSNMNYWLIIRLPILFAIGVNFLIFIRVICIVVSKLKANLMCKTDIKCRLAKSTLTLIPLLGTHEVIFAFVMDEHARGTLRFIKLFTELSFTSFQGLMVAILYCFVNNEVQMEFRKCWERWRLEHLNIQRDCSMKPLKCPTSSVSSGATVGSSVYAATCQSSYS
Procedure: Compounds were weighed precisely in an amount of about 1 mg and assayed in standard cellular assays (Cerep SA). The readout was the amount of cAMP generated in the cells treated with the test compounds, in either agonist or antagonist mode. […] The assays are described in Chicchi et al., J. Biol. Chem., 272:7765-7769 (1997) and Runge et al., Br. J. Pharmacol., 138:787-794 (2003).

DIO C57BL/6J mice = experiment: Activity in diet-induced obese (DIO) mice; type: in vivo
Procedure: Fifty diet-induced obese (DIO) C57BL/6J male mice (JAX Labs) were received at 6 wks of age. The mice were ear notched for identification and housed individually in positively ventilated polycarbonate cages with HEPA-filtered air at a density of […]. The animal room was lit entirely with artificial fluorescent lighting, with a controlled 12 hr light/dark cycle. The normal temperature and relative humidity ranges in the animal rooms were 22±4° C. and 50±15%, respectively. Filtered tap water, acidified to a pH of 2.8-3.1, and a high-fat diet (Research Diets D12492, 60 kcal %) were provided ad libitum.
Following a 2 week acclimation, the 50 mice were randomized into groups (n=10): Group 1: treated with vehicle; Group 2: low-dose EU-A994; Group 3: high-dose […]; Group 4: low-dose EU-A1024; and Group 5: high-dose EU-A1024. Mice were dosed subcutaneously on days 1 (at 0 and 7 hr), 3, 6, 9, 12, 15, 18, 21 and 24. Body weight and cage-side observations were recorded daily. Food and water intake was recorded weekly. Mice underwent NMR measurements for determination of whole-body fat and lean composition on days 1 (pre-dose) and 26. On day 26, mice were fasted overnight for an oral glucose tolerance test. Next day, the first blood sample was collected via tail nick (t=0). Mice were then administered a bolus of 1.0 g/kg glucose. Blood samples were obtained via tail nick at 0, 15, 30, 60, 90 and 120 min after glucose dosing, and plasma glucose was immediately determined using a glucometer.
Mice were sacrificed on day 28. Terminal blood was processed to serum/plasma, and aliquots were sent for analysis of glucose, insulin and lipid profile. Body composition was determined by NMR.

human glucagon receptor = target: T2, human glucagon receptor (Homo sapiens, UniProt P47871); experiment: DiscoveRx LeadHunter cellular assay, cAMP stimulation, glucagon receptor in CHO cells; type: cell-based
T2 construct: host or cells: CHO cells
T2 sequence (P47871 26-477): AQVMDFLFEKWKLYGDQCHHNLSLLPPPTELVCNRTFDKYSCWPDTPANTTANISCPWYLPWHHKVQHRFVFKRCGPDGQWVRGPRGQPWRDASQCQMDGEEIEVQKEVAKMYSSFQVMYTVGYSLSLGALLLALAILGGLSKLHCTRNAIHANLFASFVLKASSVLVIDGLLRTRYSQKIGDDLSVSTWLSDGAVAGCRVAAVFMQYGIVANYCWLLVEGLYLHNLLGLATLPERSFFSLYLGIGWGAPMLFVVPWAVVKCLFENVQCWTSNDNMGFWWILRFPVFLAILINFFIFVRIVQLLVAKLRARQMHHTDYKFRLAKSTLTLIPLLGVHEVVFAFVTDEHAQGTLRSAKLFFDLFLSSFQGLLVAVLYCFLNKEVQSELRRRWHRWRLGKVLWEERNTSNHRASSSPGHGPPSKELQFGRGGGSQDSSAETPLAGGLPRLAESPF
Procedure: (§4801) A further series of cellular assays was carried out with standard cellular assays (DiscoveRx, LeadHunter assays) using readout of cAMP stimulation or arrestin activation. Compounds were weighed precisely in an amount of about 1 mg and shipped to DiscoveRx for dilution and assay.

human GLP-1 receptor = target: T3, human GLP-1 receptor (Homo sapiens, UniProt P43220); experiment: DiscoveRx LeadHunter cellular assay, cAMP stimulation, GLP-1 receptor in CHO cells; type: cell-based; details: human GLP-1 receptor in CHO cells (DiscoveRx); read-out: EC50 cAMP GLP-1 R
T3 construct: host or cells: CHO cells
T3 sequence (P43220 24-463): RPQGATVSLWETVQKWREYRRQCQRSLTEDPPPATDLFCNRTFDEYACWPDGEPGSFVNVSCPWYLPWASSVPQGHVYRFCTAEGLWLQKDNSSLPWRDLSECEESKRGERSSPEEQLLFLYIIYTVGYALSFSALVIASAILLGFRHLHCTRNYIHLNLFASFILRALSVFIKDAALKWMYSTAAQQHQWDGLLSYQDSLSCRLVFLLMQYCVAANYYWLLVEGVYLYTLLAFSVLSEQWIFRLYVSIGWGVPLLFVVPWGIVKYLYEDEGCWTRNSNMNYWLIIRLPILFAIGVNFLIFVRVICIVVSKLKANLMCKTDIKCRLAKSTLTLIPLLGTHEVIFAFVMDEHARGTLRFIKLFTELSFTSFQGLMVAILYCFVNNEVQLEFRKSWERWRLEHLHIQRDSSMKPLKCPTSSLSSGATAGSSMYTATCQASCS
Procedure: as §4801

[1] = 12 weeks QD (SP-1373 5/10 nmole/kg SC; semaglutide 10 nmole/kg SC; elafibranor 78 mole/kg PO)
[2] = 12 weeks QD (SP-1373 5/10 nmole/kg SC; semaglutide 10 nmole/kg SC; elafibranor PO)
[3] = days 1 (pre-dose) and 26 (FIG. 11)
[4] = sc on days 1 (0 and 7 hr), 3, 6, 9, 12, 15, 18, 21 and 24

For CSc1ccc(C(=O)/C=C/c2cc(C)c(OC(C)(C)C(=O)O)c(C)c2)cc1 [elafibranor], the “liver fibrosis score (0-4), picrosirius red” value (DIO-NASH mice; 12 weeks QD (SP-1373 5/10 nmole/kg SC; elafibranor PO)) was “reduced liver fibrosis in the majority of animals”, the “liver triglycerides (TG) level” value (DIO-NASH mice; [1]) was “little or no effect” and the liver weight (DIO-NASH mice; [1]) was “increased liver weight”. For the same compound, the “total liver collagen type 1 alpha 1 staining (measure of liver fibrosis)” value (DIO-NASH mice; [1]) was “modest effect”, the “total liver galectin-3 staining (biomarker for liver inflammation and fibrosis)” value (DIO-NASH mice; [1]) was “essentially no effect” and the body weight (DIO-NASH mice; [2]) was “less body weight decrease”. The “liver total cholesterol (TC) level” value (DIO-NASH mice; [2]) was “little or no effect” and the “hepatocyte ballooning score (0-2), pre-study to post-study biopsy” value (DIO-NASH mice; [2]) was “showed no ballooning”.

In the case of semaglutide, the body weight (DIO-NASH mice; [2]) is reported as “less body weight decrease”, the “hepatocyte ballooning score (0-2), pre-study to post-study biopsy” value (DIO-NASH mice; [2]) is reported as “showed no ballooning” and the “liver steatosis, histology with hematoxylin and eosin stain” value (DIO-NASH mice; semaglutide 10 nmole/kg SC QD 12 weeks) is reported as “moderate decrease in hepatosteatosis”.

With CCCCCCCCCCCCCCO[C@@H]1O[C@H](C(=O)NCCCC[C@@H]2NC(=O)[C@H](CCC(N)=O)NC(=O)[C@@H](NC(=O)[C@H](CC(=O)O)NC(=O)[C@H](CC(C)C)NC(=O)[C@H](Cc3ccc(O)cc3)NC(=O)[C@H](CCCCN)NC(=O)[C@H](CO)NC(=O)[C@H](Cc3ccc(O)cc3)NC(=O)[C@H](CC(=O)O)NC(=O)[C@H](CO)NC(=O)[C@@H](NC(=O)[C@H](Cc3ccccc3)NC(=O)[C@@H](NC(=O)CNC(=O)[C@H](CCC(N)=O)NC(=O)C(C)(C)NC(=O)[C@@H](N)Cc3c[nH]cn3)[C@@H](C)O)[C@@H](C)O)CCC(=O)NCCCC[C@@H](C(N)=O)NC(=O)[C@H](C)NC2=O)[C@@H](O)[C@H](O)[C@H]1O [EU-A540] the “EC50 GLP-1 R (nM)” value (GLP-1 R) was “n.c”.

For CCCCCCCCCCCCO[C@@H]1O[C@H](C(=O)NCCCC[C@H](NC(=O)[C@H](CO)NC(=O)[C@H](CC(=O)O)NC(=O)[C@H](CC(C)C)NC(=O)[C@H](Cc2ccc(O)cc2)NC(=O)[C@H](CCCCN)NC(=O)[C@H](CO)NC(=O)[C@H](Cc2ccc(O)cc2)NC(=O)[C@H](CC(=O)O)NC(=O)[C@H](CO)NC(=O)[C@@H](NC(=O)[C@H](Cc2ccccc2)NC(=O)[C@@H](NC(=O)CNC(=O)[C@H](CCC(N)=O)NC(=O)C(C)(C)NC(=O)[C@@H](N)Cc2c[nH]cn2)[C@@H](C)O)[C@@H](C)O)C(=O)N[C@@H](CCCNC(=N)N)C(=O)NC(C)(C)C(N)=O)[C@@H](O)[C@H](O)[C@H]1O [EU-A529], the “EC50 GLP-1 R (nM)” value (GLP-1 R) was “n.c”.

For CCCCCCCCCCCCCCO[C@@H]1O[C@H](C(=O)NCCCC[C@H](NC(=O)[C@H](CCCNC(=N)N)NC(=O)[C@H](CO)NC(=O)[C@H](CC(=O)O)NC(=O)[C@H](CC(C)C)NC(=O)[C@H](Cc2ccc(O)cc2)NC(=O)[C@H](CCCCN)NC(=O)[C@H](CO)NC(=O)[C@H](Cc2ccc(O)cc2)NC(=O)[C@H](CC(=O)O)NC(=O)[C@H](CO)NC(=O)[C@@H](NC(=O)[C@H](Cc2ccccc2)NC(=O)[C@@H](NC(=O)CNC(=O)[C@H](CCC(N)=O)NC(=O)C(C)(C)NC(=O)[C@@H](N)Cc2c[nH]cn2)[C@@H](C)O)[C@@H](C)O)C(=O)NC(C)(C)C(N)=O)[C@@H](O)[C@H](O)[C@H]1O [EU-A535], the “efficacy class at GLP-1 R (mark in EC50 cell)” value (GLP-1 R) was “§4800”.

CCCCCCCCCCCCCCO[C@@H]1O[C@H](CO[C@H]2O[C@H](C(=O)NCCCC[C@H](NC(=O)[C@@H](NC(=O)[C@H](Cc3ccccc3)NC(=O)[C@H](CCC(=O)O)NC(=O)[C@@H]3CCCCNC(=O)CC[C@H](NC(=O)[C@H](CC(=O)O)NC(=O)[C@H](CC(C)C)NC(=O)[C@H](Cc4ccc(O)cc4)NC(=O)[C@H](CCCCN)NC(=O)[C@H](CO)NC(=O)[C@H](Cc4ccc(O)cc4)NC(=O)[C@H](CC(=O)O)NC(=O)[C@H](CO)NC(=O)[C@@H](NC(=O)[C@H](Cc4ccccc4)NC(=O)[C@@H](NC(=O)CNC(=O)[C@H](CCC(N)=O)NC(=O)C(C)(C)NC(=O)[C@@H](N)Cc4c[nH]cn4)[C@@H](C)O)[C@@H](C)O)C(=O)N[C@@H](CCC(N)=O)C(=O)N[C@@H](C)C(=O)N[C@@H](C)C(=O)N3)[C@@H](C)CC)C(=O)N[C@@H](Cc3c[nH]c4ccccc34)C(=O)N[C@@H](CC(C)C)C(=O)N[C@@H](CC(C)C)C(=O)N[C@@H](CCC(N)=O)C(=O)N[C@H](C(N)=O)[C@@H](C)O)[C@H](O)[C@H](O)[C@H]2O)[C@@H](O)[C@H](O)[C@H]1O [EU-A1024] was tested, and the “fat mass (NMR)” value (DIO C57BL/6J mice; [3]) was “reduced fat mass”, the “lean mass (NMR)” value (DIO C57BL/6J mice; [3]) was “little effect on lean mass” and the basal insulin secretion (DIO C57BL/6J mice; [4]) was “reduced basal insulin secretion”. For the same compound, the “glucose excursion in the oral glucose tolerance test (OGTT)” value (DIO C57BL/6J mice; [4]) was “reduced glucose excursion”, the glucose-dependent insulin secretion (DIO C57BL/6J mice; [4]) was “increased glucose-dependent insulin secretion” and the weight gain (DIO C57BL/6J mice; sc on days 1 (0 and 7 hr), 3, 6, 9, 12, 15, 18, 21 and 24 (FIG. 10)) was “reduced weight gain”. The EC50 (human glucagon receptor) was 35 pM and the EC50 (human GLP-1 receptor) was 5 pM.
